Results published in the NIST ThermoML archive (doi:10.1016/j.jct.2014.01.012).
± gives the expanded uncertainty stated by the source.

Experiment: xn = mol fraction of the nth substance listed
Settings: 101 kPa, Liquid

CCCCCCCC[n+]1ccn(C)c1.F[P-](F)(F)(F)(F)F [1-octyl-3-methylimidazolium hexafluorophosphate] + CCCCOC(C)=O
Settings | mass density [kg/m3] | speed of sound [m/s]
293.15 K, x1 = 0.1078 | 957.599 ± 0.47 | 1231.1 ± 2.8
293.15 K, x1 = 0.2016 | 1010.44 ± 0.54 | 1251 ± 2.9
293.15 K, x1 = 0.3056 | 1058.02 ± 0.85 | 1273.2 ± 3
293.15 K, x1 = 0.3855 | 1088.56 ± 1.1 | 1291.6 ± 3.1
293.15 K, x1 = 0.4815 | 1119.98 ± 1.5 | 1309.4 ± 3.3
293.15 K, x1 = 0.5918 | 1150.6 ± 1.9 | 1328.2 ± 3.4
293.15 K, x1 = 0.6857 | 1173.18 ± 2.4 | 1343.6 ± 3.6
293.15 K, x1 = 0.7784 | 1193.01 ± 2.9 | 1358.4 ± 3.7
293.15 K, x1 = 0.8946 | 1215.11 ± 3.6 | 1375.1 ± 3.9
293.15 K, x1 = 1 | 1222.81 ± 4.2 | 1388.2 ± 4.1
298.15 K, x1 = 0.1078 | 953.226 ± 0.48 | 1211.6 ± 2.8
298.15 K, x1 = 0.2016 | 1006.23 ± 0.53 | 1232.7 ± 2.9
298.15 K, x1 = 0.3056 | 1053.87 ± 0.83 | 1256.9 ± 3
298.15 K, x1 = 0.3855 | 1084.42 ± 1.1 | 1275 ± 3.1
298.15 K, x1 = 0.4815 | 1115.96 ± 1.5 | 1293.4 ± 3.2
298.15 K, x1 = 0.5918 | 1146.75 ± 1.9 | 1313.3 ± 3.4
298.15 K, x1 = 0.6857 | 1169.44 ± 2.4 | 1328.8 ± 3.6
298.15 K, x1 = 0.7784 | 1189.32 ± 2.8 | 1343.7 ± 3.7
298.15 K, x1 = 0.8946 | 1211.35 ± 3.5 | 1361.6 ± 3.9
298.15 K, x1 = 1 | 1218.9 ± 4.2 | 1373.4 ± 4.1
303.15 K, x1 = 0.1078 | 948.745 ± 0.49 | 1192.2 ± 2.8
303.15 K, x1 = 0.2016 | 1001.93 ± 0.52 | 1214.5 ± 2.9
303.15 K, x1 = 0.3056 | 1049.62 ± 0.82 | 1239.7 ± 3
303.15 K, x1 = 0.3855 | 1080.26 ± 1.1 | 1258.8 ± 3.1
303.15 K, x1 = 0.4815 | 1111.97 ± 1.4 | 1278.6 ± 3.2
303.15 K, x1 = 0.5918 | 1142.89 ± 1.9 | 1298.6 ± 3.4
303.15 K, x1 = 0.6857 | 1165.73 ± 2.3 | 1314.7 ± 3.5
303.15 K, x1 = 0.7784 | 1185.68 ± 2.8 | 1329.6 ± 3.7
303.15 K, x1 = 0.8946 | 1207.65 ± 3.5 | 1347.1 ± 3.9
303.15 K, x1 = 1 | 1214.96 ± 4.1 | 1359.3 ± 4.1
308.15 K, x1 = 0.1078 | 944.257 ± 0.49 | 1172.8 ± 2.7
308.15 K, x1 = 0.2016 | 997.643 ± 0.52 | 1196.4 ± 2.8
308.15 K, x1 = 0.3056 | 1045.4 ± 0.81 | 1222.6 ± 3
308.15 K, x1 = 0.3855 | 1076.13 ± 1.1 | 1242.8 ± 3.1
308.15 K, x1 = 0.4815 | 1107.98 ± 1.4 | 1263.5 ± 3.2
308.15 K, x1 = 0.5918 | 1139.12 ± 1.9 | 1284 ± 3.4
308.15 K, x1 = 0.6857 | 1162.11 ± 2.3 | 1300.8 ± 3.5
308.15 K, x1 = 0.7784 | 1182.13 ± 2.8 | 1315.8 ± 3.7
308.15 K, x1 = 0.8946 | 1204.03 ± 3.5 | 1333.5 ± 3.9
308.15 K, x1 = 1 | 1211.13 ± 4.1 | 1345.8 ± 4.1
313.15 K, x1 = 0.1078 | 939.644 ± 0.5 | 1153.7 ± 2.7
313.15 K, x1 = 0.2016 | 993.304 ± 0.53 | 1178.5 ± 2.8
313.15 K, x1 = 0.3056 | 1041.23 ± 0.8 | 1205.7 ± 2.9
313.15 K, x1 = 0.3855 | 1072.05 ± 1.1 | 1226.9 ± 3
313.15 K, x1 = 0.4815 | 1104.1 ± 1.4 | 1248.4 ± 3.2
313.15 K, x1 = 0.5918 | 1135.23 ± 1.9 | 1269.7 ± 3.4
313.15 K, x1 = 0.6857 | 1158.31 ± 2.3 | 1286.8 ± 3.5
313.15 K, x1 = 0.7784 | 1178.4 ± 2.8 | 1302.1 ± 3.7
313.15 K, x1 = 0.8946 | 1200.3 ± 3.5 | 1322.1 ± 3.9
313.15 K, x1 = 1 | 1207.33 ± 4.1 | 1332.7 ± 4.1
318.15 K, x1 = 0.1078 | 935.027 ± 0.51 | 1134.6 ± 2.7
318.15 K, x1 = 0.2016 | 988.947 ± 0.53 | 1160.7 ± 2.8
318.15 K, x1 = 0.3056 | 1037 ± 0.78 | 1189 ± 2.9
318.15 K, x1 = 0.3855 | 1067.9 ± 1 | 1211.2 ± 3
318.15 K, x1 = 0.4815 | 1100.12 ± 1.4 | 1233.6 ± 3.2
318.15 K, x1 = 0.5918 | 1131.33 ± 1.8 | 1255.5 ± 3.3
318.15 K, x1 = 0.6857 | 1154.61 ± 2.3 | 1273.1 ± 3.5
318.15 K, x1 = 0.7784 | 1174.85 ± 2.8 | 1288.7 ± 3.6
318.15 K, x1 = 0.8946 | 1196.83 ± 3.4 | 1309.5 ± 3.9
318.15 K, x1 = 1 | 1203.5 ± 4 | 1320.1 ± 4
323.15 K, x1 = 0.1078 | 930.067 ± 0.52 | 1115.7 ± 2.6
323.15 K, x1 = 0.2016 | 984.404 ± 0.54 | 1143 ± 2.8
323.15 K, x1 = 0.3056 | 1032.8 ± 0.77 | 1172.3 ± 2.9
323.15 K, x1 = 0.3855 | 1063.84 ± 1 | 1195.6 ± 3
323.15 K, x1 = 0.4815 | 1096.14 ± 1.4 | 1218.8 ± 3.2
323.15 K, x1 = 0.5918 | 1127.43 ± 1.8 | 1241.6 ± 3.3
323.15 K, x1 = 0.6857 | 1150.89 ± 2.3 | 1259.4 ± 3.5
323.15 K, x1 = 0.7784 | 1171.35 ± 2.7 | 1275.5 ± 3.6
323.15 K, x1 = 0.8946 | 1193.45 ± 3.4 | 1296.1 ± 3.9
323.15 K, x1 = 1 | 1199.67 ± 4 | 1307.7 ± 4
